Tests used:
[1] = 28-day feeding study in cats, antioxidant status; assay type: in vivo; conditions: dry cat food with 227 mg/kg of EGCG, 28 days, compared with control group
Experimental: Periodontopathic conditions are the most common disease in dogs and cats. Especially in cats, prophylaxis is usually limited to professional dental cleaning under anaesthesia. Special diets which reduce plaque and calculus accumulation have been formulated to extend the period of time between professional dental cleanings. The study was conducted to determine the effect of EGCG in a regular dry diet on the oral health of cats. In addition, the in vitro antibacterial activity of the substance and its effect on the antioxidant status of cats were evaluated. The substance under investigation was sprayed on a standard dry cat food. The supplemented diet contained 227 mg/kg of EGCG. 18 cats were made available for the feeding study, being assigned either to a control group or a study group, each group containing 9 cats. At the beginning of the trial, which was conducted over a period of 28 days, the oral health status of the cats was examined using various indices and tests, and samples from the oral cavity were obtained for bacteriological analysis. In addition, blood samples were taken to determine the antioxidant status of the animal. The examinations were followed by a coronal cleaning (scaling and polishing) to ensure that the study period began with no plaque or calculus present on tooth surfaces (“clean tooth” model). […]

[2] = tested on: bacteria taken from the feline oral cavity; experiment: in vitro antibacterial activity; assay type: cell-based
Experimental: Periodontopathic conditions are the most common disease in dogs and cats. Especially in cats, prophylaxis is usually limited to professional dental cleaning under anaesthesia. Special diets which reduce plaque and calculus accumulation have been formulated to extend the period of time between professional dental cleanings. The study was conducted to determine the effect of EGCG in a regular dry diet on the oral health of cats. In addition, the in vitro antibacterial activity of the substance and its effect on the antioxidant status of cats were evaluated. […] With a view to achieving better in vivo results, a change in the dosage, and possibly also a change in the mode of administration, can be considered. Further, the active ingredient can be administered in higher concentration, or in such a way as to prolong the time of its contact with the oral cavity. […] This was investigated as a secondary target variable.

O=C(O[C@@H]1Cc2c(O)cc(O)cc2O[C@@H]1c1cc(O)c(O)c(O)c1)c1cc(O)c(O)c(O)c1 [Epigallocatechingallate]
effect on the antioxidant status of the cats [1]: positive effect on the antioxidant status of the cat | inhibition of growth of bacteria taken from the feline oral cavity [2]: able to inhibit the growth bacteria taken from the feline oral cavity in vitro

From US20080085338A1, “Pet Food” (priority 2005, published 2008)
